Data taken from patent US11517729B2, “Integrated fiber microneedle device for drug and vaccine delivery” (University of Washington, priority 2018, dated 2022).

Assay: Release studies of integrated fiber microneedles in PBS
Assay type: physicochemical
Method: A small molecule drug, a model protein, and plasmid DNA were loaded into individual devices and the release kinetics of each were measured. These agents were loaded into an array of 420 needles, with a total device size of 4.2 cm^2. In this experiment, the needles were 350 μm in diameter and 800 μm tall. […] Each agent was successfully loaded into the fiber-microneedle system using a loading of 100 μg for the small molecule, […] for the protein, and 1.1 μg for the DNA. […] This plateau occurred at different percent release for the different agents. The small molecule plateaued at 70% release, the protein plateaued at 35% release, and the plasmid DNA plateaued around 80% release. […]
Data represent release from a single array of integrated fiber microneedles. Complete (100%) release was determined by TFV detected in release media after 84 days. […] 100% release was determined by DNA detected in release media after 25 days.
Microneedle characterization: SEM imaging of electrospun fibers on the two-layer composite microneedle molds and completed microneedles was performed on a JEOL JSM7400F cold field emission scanning electron microscope. […] TFV content was determined by HPLC (Shimadzu Prominence LC20AD UV-HPLC) with a Phenomenex Luna 153 C18 column and LCSolutions software. […] The column was heated to 30° C., and TFV was detected at 259 nm. BSA content was analyzed by the Pierce MicroBCA Assay. […]

SMILES: C[C@H](Cn1cnc2c(N)ncnc21)OCP(=O)(O)O [TFV, tenofovir]
- plateau of percent release (TFV from integrated fiber microneedles into PBS, HPLC, 100% = TFV detected in release media after 84 days, single array): 70%
- release profile (from integrated fiber microneedles (array of 420 needles) into PBS): sharp initial burst release followed by a plateau
